Values joined by “and” are separate entries in the source; they are usually repeats but may differ in a detail not shown here. Equal entries are not always repeated. Where two headings read alike, the source gives them in different places.
How the values were obtained:
MDA-MB-468 cells = assay: Surface Annexin V display by flow cytometry, MDA-MB-468; assay type: cell-based; conditions: MDA-MB-468, 12 h; RA475 1 or 2 μM, ixazomib 1 μM
Experimental: The percentage of cells initiating apoptosis was assessed with the annexin V FITC assay kit. The cells (2 × 10^5 cells/well) were treated with the described compounds at selected concentrations for 12 h or 16 h, as indicated. The cells were then collected, washed with PBS, resuspended in 100 μL of annexin V-FITC and 7-AAD dual-stain solution (3 μL Annexin V and 3 μL 7AAD, Catalog Number; 559763-BD bioscience), and incubated 20 min in the dark. The samples were then analyzed via flow cytometry using FlowJo V10 software. All experiments were repeated three times.
Supplementary file pone.0305710.s006.tif: S6 Fig RA475 induced apoptosis in a triple negative breast cancer cell line. […] (TIF)

[1] = Single dose plasma pharmacokinetics in CD1 mice; assay type: in vivo, mouse
Experimental: For single dose pharmacokinetic studies, plasma samples (40 μL) were mixed with 200 μL of a water-methanol (1:9, v/v) containing the internal standard elacridar at 80 ng/mL. After mixing by pipetting and centrifuging for 4 min at 5500 x g, 0.25 μL of the supernatant was injected into LC-MS/MS system. […] Mobile phase A was acetonitrile/water (5:95, v/v) containing 1% formic acid, and mobile phase B was acetonitrile containing 0.1% formic acid. The gradient was initiated with mobile phase B at 10% with a flow rate of 0.4 mL/min, increased to 100% over 0.9 min and then and held for 0.1 min, and returned back to 10% mobile phase B and allowed to equilibrate until 2.2 min. An SCIEX 5000 triple quadrupole mass spectrometer operated in positive electrospray ionization mode was used for the detection of RA475. The lower limit of quantitation (LLOQ) in plasma was 10 ng/mL.
Pharmacokinetic parameters were calculated from mean concentration-time data using non-compartmental methods in Phoenix WinNonlin version 8.3 (Certara, Princeton, NJ). Concentrations after the time 0 sample that were below the LLOQ were imputed with ½ that value (1 ng/mL). Any concentration that was determined to be an outlier by the Grubbs’s outlier test were excluded from analysis. The maximum plasma concentration (Cmax) and time to Cmax (Tmax) were the observed values. The AUClast was calculated using the log-linear trapezoidal method. AUC was extrapolated to infinity (AUCINF) by dividing the last quantifiable concentration by the terminal disposition rate constant (λz). The λz was determined from at least 3 points on the slope of the terminal phase of the concentration-time profile. The terminal half-life (T1/2) was determined by dividing 0.693 by λz. Clearance (Cl) or apparent Cl (Cl/F) was calculated by dividing the dose administered by AUCINF. Volume of distribution (V) or apparent V (V/F) was calculated by dividing Cl or Cl/F by λz. […] The oral and IP bioavailability was calculated as: F(%)=DoseIV×AUCINFPO/DosePO×[…].100%
The Method of Bailer was used to estimate the variance of AUC given the calculated variance of the mean concentration at each time point. A pairwise comparison utilizing Z test was used to determine whether there was a significant difference between RA475 exposures as expressed by AUC last. Additionally, the Up284 exposure was truncated to 8 h and compared to the same route of administration and exposure as RA475. In all cases, p < 0.05 was considered statistically significant.
CD1 (n = 4 per time point and condition; 8 weeks old, 26.8±3g) mice were administered a single dose of RA475, either IV (10 mg/kg), PO (40 mg/kg), or IP (40 mg/kg), and thereafter serial blood plasma samples were analyzed for RA475 levels by LC–MS/MS. The animals were randomly assigned to the treatment groups (S9 Table) and fasted for 4 h before dosing. Eight time points for IV and IP (0.083, 0.25, 0.5, 1, 2, 4, 6, and 8 h) and seven time points for PO (0.25, 0.5, 1, 2, 4, 6, and 8) administration were set for this pharmacokinetic study. Mice were injected IP with 2,2,2-tribromoethanol at the dose of 150 mg/kg prior to drawing the blood in microtainers containing K3EDTA via retro-orbital bleeding. Blood samples were centrifuged 10 min at 3000 rpm. All samples were immediately processed, flash-frozen and stored at -70°C until subsequent analysis. No obvious adverse effects were observed during this PK study. The average RA475 plasma concentrations data for IV, IP, and PO dosed groups (S10–S12 Tables) is graphically presented in Fig 4, and may be compared to published data for Up284 [37]. Pharmacokinetic parameters were calculated from mean concentration-time data using non-compartmental methods in Phoenix WinNonlin version 8.3 (Certara, Princeton, NJ) (S13 Table). Using the Method of Bailer, there was no difference in dose normalized AUClast by any route of administration of RA475.

[2] = male, CD1, mouse, plasma, ip, 40 mg/kg, IP 40 mg/Kg
[3] = male, CD1, mouse, plasma, po, 40 mg/kg, PO 40 mg/Kg
[4] = male, CD1, mouse, plasma, IP 40 mg/kg
[5] = male, CD1, mouse, plasma, IV 10 mg/kg
[6] = male, CD1, mouse, plasma, PO 40 mg/kg

With `Cl.Cl.N#Cc1ccc(/C=C2/C(=O)/C(=C/c3ccc(C#N)cc3)C23CCN(C(=N)N)CC3)cc1` [RA475, 1,3-bis((E)-4-cyanobenzylidene)-2-oxo-7-azaspiro[3.5]nonane-7-carboximidamide dihydrochloride] the “apoptosis by surface Annexin V display” value (MDA-MB-468 cells) was “initiated apoptosis”, the concentration at 360 min ([1]; CD1, mouse, plasma, ip, 40 mg/kg, IP 40 mg/Kg, 360 min, read-out: Plasma concentration, Group A-D) was 327 ng/mL and the bioavailability ([1]; CD1, mouse, plasma, IP 40 mg/kg) was 103%. The bioavailability ([1]; CD1, mouse, plasma, PO 40 mg/kg) was 1.1%, the “Plasma concentration, Group A-D” value ([1]; IP 40 mg/Kg, 240 min, 40 mg/kg) was 484 ng/mL and 577 ng/mL and 614 ng/mL and the “Plasma concentration, Group A-D” value ([1]; IP 40 mg/Kg, 480 min, 40 mg/kg) was 118 ng/mL and 174 ng/mL and 125 ng/mL. For the same molecule, the “Plasma concentration, Group A-D” value ([1]; PO 40 mg/Kg, 30 min, 40 mg/kg) was 60 ng/mL and 57 ng/mL and 52 ng/mL, the “Plasma concentration, Group A-D” value ([1]; PO 40 mg/Kg, 60 min, 40 mg/kg) was 33 ng/mL and 35 ng/mL and 44 ng/mL and the “Plasma concentration, Mean” value ([1]; PO 40 mg/Kg, 240 min) was “BQL”. The “Plasma concentration, Mean” value ([1]; PO 40 mg/Kg, 360 min) was “BQL”, the “Plasma concentration, Group A-D” value ([1]; PO 40 mg/Kg, 360 min, LLOQ 10 ng/mL) was “BQL” and the “Plasma concentration, Mean” value ([1]; PO 40 mg/Kg, 480 min) was “BQL”. The “Plasma concentration, Group A-D” value ([1]; PO 40 mg/Kg, 480 min, LLOQ 10 ng/mL) was “BQL”, the “dose-normalized Cmax, fold higher than Up284” value ([1]; RA475 vs Up284) was 2.3 fold and the concentration at 15 min [1, 2] was 11500 ng/mL. It also gave a concentration at 30 min ([1]; male, CD1, mouse, plasma, ip, 40 mg/kg, IP 40 mg/Kg, 30 min, read-out: Plasma concentration, Mean) of 9350 ng/mL, a concentration at 60 min ([1]; male, CD1, mouse, plasma, ip, 40 mg/kg, IP 40 mg/Kg, 60 min, read-out: Plasma concentration, Mean) of 3580 ng/mL and a concentration at 120 min [1, 2] of 969 ng/mL. The concentration at 240 min ([1]; male, CD1, mouse, plasma, ip, 40 mg/kg, IP 40 mg/Kg, 240 min, read-out: Plasma concentration, Group A-D) was 356 ng/mL, the concentration at 240 min ([1]; male, CD1, mouse, plasma, ip, 40 mg/kg, IP 40 mg/Kg, 240 min, read-out: Plasma concentration, Mean) was 508 ng/mL and the concentration at 360 min ([1]; male, CD1, mouse, plasma, ip, 40 mg/kg, IP 40 mg/Kg, 360 min, read-out: Plasma concentration, Mean) was 125 ng/mL. For the same molecule, the concentration at 480 min ([1]; male, CD1, mouse, plasma, ip, 40 mg/kg, IP 40 mg/Kg, 480 min, read-out: Plasma concentration, Group A-D) was 105 ng/mL, the concentration at 480 min ([1]; male, CD1, mouse, plasma, ip, 40 mg/kg, IP 40 mg/Kg, 480 min, read-out: Plasma concentration, Mean) was 131 ng/mL and the concentration at 15 min [1, 3] was 141 ng/mL. It also gave a concentration at 30 min ([1]; male, CD1, mouse, plasma, po, 40 mg/kg, PO 40 mg/Kg, 30 min, read-out: Plasma concentration, Group A-D) of 69 ng/mL, a concentration at 30 min ([1]; male, CD1, mouse, plasma, po, 40 mg/kg, PO 40 mg/Kg, 30 min, read-out: Plasma concentration, Mean) of 60 ng/mL and a concentration at 60 min ([1]; male, CD1, mouse, plasma, po, 40 mg/kg, PO 40 mg/Kg, 60 min, read-out: Plasma concentration, Group A-D) of 29 ng/mL. It also gave a concentration at 60 min ([1]; male, CD1, mouse, plasma, po, 40 mg/kg, PO 40 mg/Kg, 60 min, read-out: Plasma concentration, Mean) of 35 ng/mL, a concentration at 120 min [1, 3] of 20 ng/mL and a concentration at 240 min ([1]; male, CD1, mouse, plasma, po, 40 mg/kg, PO 40 mg/Kg, 240 min, LLOQ 10 ng/mL, read-out: Plasma concentration, Group A-D) of 20 ng/mL. For the same molecule, the AUC(0-t) [1, 4] was 11300 ng·h/mL, the Cmax [1, 4] was 11500 ng/mL and the Tmax [1, 4] was 15 min. For the same molecule, the AUC(0-inf) [1, 5] was 2780 ng·h/mL, the AUC(0-t) [1, 5] was 2730 ng·h/mL and the Cmax [1, 5] was 10500 ng/mL. For the same molecule, the half-life [1, 5] was 126 min, the AUC(0-inf) [1, 6] was 139 ng·h/mL and the AUC(0-t) [1, 6] was 118 ng·h/mL. For the same molecule, the Cmax [1, 6] was 142 ng/mL, the Tmax [1, 6] was 15 min and the half-life [1, 6] was 96 min. For the same molecule, the CL/F ([1]; male, CD1, mouse, plasma, PO 40 mg/kg, read-out: Cl or Cl/F (converted)) was 289 L/h/kg, the Tmax ([1]; mouse, plasma, IV 10 mg/kg, male CD1 mice) was 4.98 min and the “Cl or Cl/F” value ([1]; plasma, IV 10 mg/kg) was 0.216 L/h/kg. For the same molecule, the “V or V/F” value ([1]; plasma, IV 10 mg/kg) was 10.9 L/kg and the “V or V/F” value ([1]; plasma, PO 40 mg/kg) was 668.1 L/kg.

From paper PMC11239005, “Preclinical studies of RA475, a guanidine-substituted spirocyclic candidate RPN13/ADRM1 inhibitor for treatment of ovarian cancer” (PLOS ONE, 2024)
